These results are taken from patent US11261186B2, “Biaryl derivative as GPR120 agonist” (LG CHEM, LTD., priority 2014, dated 2022).

The assay deals with T1, hGPR120 (Homo sapiens, UniProt Q5NUL3).
T1 construct: expressed in transfected cells; host or cells: CHO-K1
T1 sequence (Q5NUL3 1-361): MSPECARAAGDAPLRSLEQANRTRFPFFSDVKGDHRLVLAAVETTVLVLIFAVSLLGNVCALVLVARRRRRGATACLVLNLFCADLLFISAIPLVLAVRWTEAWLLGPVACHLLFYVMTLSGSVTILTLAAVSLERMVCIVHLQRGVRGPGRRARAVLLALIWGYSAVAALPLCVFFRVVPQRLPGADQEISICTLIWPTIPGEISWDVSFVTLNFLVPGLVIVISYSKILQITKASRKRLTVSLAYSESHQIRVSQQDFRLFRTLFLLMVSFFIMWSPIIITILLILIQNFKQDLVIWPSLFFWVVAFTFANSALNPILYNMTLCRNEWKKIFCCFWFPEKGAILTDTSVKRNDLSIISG
Put plainly: Measurement of Activity of GPR120 Agonist (Cell-Based Assay), Calcium 5 dye fluorescence. The settings on record: CHO-K1 cells expressing Ga16 and hGPR120. Here is the method: CHO-K1 cells expressing Ga16 and hGPR120 were dispensed into each well of a 96-well plate (3×10^4 cells/100 μl/well) and then incubated in 5% CO2, 37° C. incubator for 18 hours. Each well was treated with 100 μl of Calcium 5 dye (Molecular Devices) solution including 2% DMSO and then incubated in 5% CO2, 37° C. incubator for 1 hour. Serially diluted GPR120 agonists were prepared to a final concentration of 0.5% DMSO in a 96-well plate. Each well was treated with 50 μl of the agonist compounds using Plexstation II, and then fluorescence was measured at Ex 485 nm and Em 525 nm.
Fluorescence increased by the serially diluted GPR120 agonists is calculated as a relative percent (%) value based on the fluorescence represented by the treatment of 1% DMSO only. […] The calculation of measurement was carried out by using statistical software (Prizm).
Activity is denoted based on the following criteria: […]

As a reminder, the EC50 is the concentration at which the effect is half-maximal. In the case of `COc1ccc(-c2cc(F)c(N3CCC(CC(=O)O)CC3)c(F)c2)nc1OC1CCC1` [Example 457, 2-[1-[4-[6-(cyclobutoxy)-5-methoxy-2-pyridyl]-2,6-difluoro-phenyl]-4-piperidyl]acetic acid], the EC50 lay within 0.2 to 2 µM.

On to `CC(C)Sc1cccc(-c2cc(F)c(-n3cc(CC(=O)O)cn3)c(F)c2)n1` [Example 123, 2-[1-[2,6-difluoro-4-(6-isopropylsulfanyl-2-pyridyl)phenyl]pyrazol-4-yl]acetic acid], for which the EC50 lay within 0.2 to 2 µM.

For the molecule `O=C(O)CC1CCN(c2c(F)cc(-c3nccc(OC4CCC4)n3)cc2F)CC1` [Example 330, 2-[1-[4-[4-(cyclobutoxy)pyrimidin-2-yl]-2,6-difluoro-phenyl]-4-piperidyl]acetic acid], the EC50 was < 0.2 µM.

Turning to `O=C(O)CCCOc1c(F)cc(-c2nccc(OC3CCC3)n2)cc1F` [Example 420, 4-[4-(4-cyclobutoxy-pyrimidin-2-yl)-2,6-difluoro-phenoxy]-butyric acid], the EC50 was < 0.2 µM.

Turning to `O=C(O)CC1CCN(c2c(F)cc(-c3cncc(OC4CCCC4)n3)cc2F)CC1` [Example 344, 2-[1-[4-[6-(cyclopentoxy)pyrazin-2-yl]-2,6-difluoro-phenyl]-4-piperidyl]acetic acid], the EC50 was < 0.2 µM.

With `COCCCOc1ccnc(-c2cc(F)c(N3CCC(CC(=O)O)CC3)c(F)c2)n1` [Example 600, (1-{2,6-difluoro-4-[4-(3-methoxy-propoxy)-pyrimidin-2-yl]-phenyl}-piperidin-4-yl)-acetic acid], the EC50 was 0.2 to 2 µM.

Regarding `O=C(O)CC1CCN(c2c(F)cc(-c3cccc4sc(-c5ccc(F)cc5)cc34)cc2F)CC1` [Example 615, (1-{2,6-difluoro-4-[2-(4-fluoro-phenyl)-benzo[b]thiophen-4-yl]-phenyl}-piperidin-4-yl)-acetic acid], the EC50 fell in the range of 2 to 20 µM.

Turning to `CC(C)CNc1cncc(-c2cc(F)c(N3CCC(CC(=O)O)C3)c(F)c2)n1` (stereo not shown) [Example 503, 2-{1-[2,6-difluoro-4-(6-isobutylamino-pyrazin-2-yl)phenyl]pyrrolidin-3-yl}acetic acid], the EC50 lay in the range of 0.2 to 2 µM.

Regarding `O=C(O)C1CC1COc1c(F)cc(-c2cccc(OC3CCC3)n2)cc1F` (stereo not shown) [Example 544, 2-[4-(6-cyclobutoxy-pyridin-2-yl)-2,6-difluoro-phenoxymethyl]-cyclopropanecarboxylic acid], the EC50 is < 0.2 µM.

On to `CCOc1cc(C)nc(-c2cc(F)c(N3CCC(CC(=O)O)C3)c(F)c2)n1` (stereo not shown) [Example 590, {1-[4-(4-ethoxy-6-methyl-pyrimidin-2-yl)-2,6-difluoro-phenyl]-pyrrolidin-3-yl}-acetic acid], for which the EC50 is < 0.2 µM.

As to `CC(C)Sc1ncccc1-c1cc(F)c(N2CC[C@H](CC(=O)O)C2)c(F)c1` [Example 134, 2-[(3R)-1-[2,6-difluoro-4-(2-isopropylsulfanyl-3-pyridyl)phenyl]pyrrolidin-3-yl]acetic acid], the EC50 was < 0.2 µM.

Regarding `O=C(O)CCCCc1c(F)cc(-c2cccnc2SC2CCCC2)cc1F` [Example 36, 5-[4-(2-cyclopentylsulfanyl-3-pyridyl)-2,6-difluoro-phenyl]pentanoic acid], the EC50 was < 0.2 µM.

As for `O=C(O)CCCOc1c(F)cc(-c2ccnc(OC3CCC3)n2)cc1F` [Example 421, 4-[4-(2-cyclobutoxy-pyrimidin-4-yl)-2,6-difluoro-phenoxy]-butyric acid], the EC50 is < 0.2 µM.

As to `CC(C)Oc1cccc(-c2cc(F)c(OCc3cc(O)no3)c(F)c2)n1` [Example 71, 5-[[2,6-difluoro-4-(6-isopropoxy-2-pyridyl)phenoxy]methyl]isoxazol-3-ol], the EC50 was < 0.2 µM.

`Cc1cc(OCC(C)C)nc(-c2cc(F)c(N3CCC(CC(=O)O)CC3)c(F)c2)n1` [Example 352, 2-[1-[2,6-difluoro-4-(4-isobutoxy-6-methyl-pyrimidin-2-yl)phenyl]-4-piperidyl]acetic acid]: the EC50 was 0.2 to 2 µM.

Take `O=C(O)CC1CCN(c2c(F)cc(-c3cccc(OC4CCC4)n3)cc2F)C1` (stereo not shown) [Example 561, {1-[4-(6-cyclobutoxy-pyridin-2-yl)-2,6-difluoro-phenyl]-pyrrolidin-3-yl}-acetic acid]: the EC50 was < 0.2 µM.

Take `COc1cncc(-c2cc(F)c(N3CCC(CC(=O)O)CC3)c(F)c2)n1` [Example 340, 2-[1-[2,6-difluoro-4-(6-methoxypyrazin-2-yl)phenyl]-4-piperidyl]acetic acid]: the EC50 lay in the range of 0.2 to 2 µM.

For the molecule `CC(C)Oc1cncc(-c2cc(F)c(OCCCC(=O)O)c(Cl)c2)n1` [Example 436, 4-[2-chloro-6-fluoro-4-(6-isopropoxy-pyrazin-2-yl)-phenoxy]-butyric acid], the EC50 is < 0.2 µM.

For `Cc1cc(Oc2ccc(F)cc2)nc(-c2cc(F)c(N3CCC(CC(=O)O)CC3)c(F)c2)n1` [Example 515, 2-[1-[2,6-difluoro-4-[4-(4-fluorophenoxy)-6-methyl-pyrimidin-2-yl]phenyl]-4-piperidyl]acetic acid], the EC50 was 0.2 to 2 µM.

Turning to `O=C(O)CCCOc1c(F)cc(-n2ccc3ccc(OCC4CC4)cc32)cc1F` [Example 474, 4-[4-[6-(cyclopropylmethoxy)indol-1-yl]-2,6-difluoro-phenoxy]butanoic acid], the EC50 is < 0.2 µM.

Regarding `O=C(O)CCC1CC1c1c(F)cc(-c2cccc3c2OC2(CCCC2)C3)cc1F` (stereo not shown) [Example 443, 3-[2-(2,6-difluoro-4-spiro[3H-benzofuran-2,1′-cyclopentan]-7-yl-phenyl)cyclopropyl]propanoic acid], the EC50 is 0.2 to 2 µM.

Consider `O=C(O)CCCOc1c(F)cc(-c2cccc3c2OC2(CCCC2)C3)cc1F` [Example 261, 4-(2,6-difluoro-4-spiro[3H-benzofuran-2,1′-cyclopentan]-7-yl-phenoxy)-butyric acid], for which the EC50 was < 0.2 µM.

Take `CN(CCCC(=O)O)c1c(F)cc(-c2cccc(OC3CCC3)c2)cc1F` [Example 199, 4-[(3′-cyclobutoxy-3,5-difluoro-biphenyl-4-yl)-methyl-amino]-butyric acid]: the EC50 was < 0.2 µM.

Take `Cc1cc(OC2CCC2)nc(-c2cc(F)c(OCC3CC3C(=O)O)c(F)c2)n1` (stereo not shown) [Example 542, 2-[4-(4-cyclobutoxy-6-methyl-pyrimidin-2-yl)-2,6-difluoro-phenoxymethyl]-cyclopropanecarboxylic acid]: the EC50 is < 0.2 µM.

As for `O=C(O)CCC1CCc2cc(-c3cccc(OC4CCCC4)n3)ccc2N1` (stereo not shown) [Example 11, 3-[6-(6-cyclopentyloxy-pyridin-2-yl)-1,2,3,4-tetrahydro-quinolin-2-yl]-propionic acid], the EC50 lay within 0.2 to 2 µM.

As to `O=C(O)CCCCc1ccc(-c2cccnc2SC2CCCC2)cc1` [Example 29, 5-[4-(2-cyclopentylsulfanyl-3-pyridyl)phenyl]pentanoic acid], the EC50 is < 0.2 µM.

`O=C(O)CC1CCN(c2c(F)cc(-c3cncc(Oc4ccc(F)cc4)n3)cc2F)CC1` [Example 513, 2-[1-[2,6-difluoro-4-[6-(4-fluorophenoxy)pyrazin-2-yl]phenyl]-4-piperidyl]acetic acid]: the EC50 was < 0.2 µM.

Consider `O=C(O)CC1CCN(c2c(F)cc(-c3cc(C(F)(F)F)cc(OC4CCC4)n3)cc2F)CC1` [Example 614, {1-[4-(6-cyclobutoxy-4-trifluoromethyl-pyridin-2-yl)-2,6-difluoro-phenyl]-piperidin-4-yl}-acetic acid], for which the EC50 was 2 to 20 µM.
